Test results taken from article PMC10610044, “The Cocrystal of Ubiquinol: Improved Stability and Bioavailability” (Pharmaceutics, 2023).

Key:
[1] = Open stability study (25 °C, 60% RH, open conditions); type: physicochemical; conditions: after 4 weeks, content at day 0 set as 100%
Procedure: Open stability was conducted at 25 °C, 60% RH, under open conditions without package and nitrogen protection. Accelerated stability was conducted at 40 °C, 75% RH, packaged with aluminum foil bags. The ubiquinol polymorph II and UQ-NC cocrystal were taken out at various intervals during exposure (open stability at 0, 3, 7, 14, 21, and 28 days and accelerated stability at 0, 1, 2, 3, and 6 months).
An Agilent 1260 series HPLC was used to determine the content of ubiquinol. The HPLC was equipped with a quaternary pump (G1311C), diode-array detector (G1315D), and a 4.6 mm × 100 mm, 2.7 μm packing L1 column. The detector was set at 290 nm. A mobile phase consisting of methanol and n-hexane (85/15, v/v) was run for 10 min at 1.5 mL/min. An injection of 20 μL was performed and the column temperature was set at 35 °C.

[2] = set-up: method as in PMID 16551570; conditions: oral; cited from earlier work
[3] = set-up: method as in PMID 7666987; conditions: 5-year period; cited from earlier work
[4] = Powder dissolution in simulated intestinal fluid (SIF) with 0.5% tween 80; type: physicochemical; conditions: SIF with 0.5% tween 80, 37 °C, up to 180 min
Procedure: (§1) Powder dissolution experiments were conducted in simulated intestinal fluid (SIF) and simulated gastric fluid (SGF) with 0.5% tween 80 at 37 °C using a Mini-Bath dissolution device equipped with a Julabo ED-5 heater/circulator. SIF was prepared by dissolving 6.8 g of KH2PO4 in 500 mL of water and then the pH was adjusted to 6.8 with 0.1 mol/L og NaOH solution. In total, 10 g of pancreatin was added and finally the solution was diluted to 1000 mL with water to obtain the SIF. SGF was prepared by mixing 16.4 mL of 10% HCl solution, 800 mL of water, and 10g of pepsin. Finally, the solution was diluted to 1000 mL with water to obtain the SGF. A total of 9.3 mg of cocrystal and 8.2 mg of polymorph II were added into 20 mL of the buffer solution. The stirring speed was set to 75 rpm. To minimize the size effect on the dissolution results, the ubiquinol cocrystal and polymorph II were sieved through 80-mesh sieves. Samples were collected at 5, 15, 20, 25, 30, 40, 50, 60, 80, 130, and 180 min each time, and were filtered through the 0.45 μm nylon filters. The concentration of ubiquinol was determined using HPLC. The detailed HPLC analysis method is described in Section 2.10.
(§2) An Agilent 1260 series HPLC was used to determine the content of ubiquinol. The HPLC was equipped with a quaternary pump (G1311C), diode-array detector (G1315D), and a 4.6 mm × 100 mm, 2.7 μm packing L1 column. […]

[5] = Powder dissolution in simulated gastric fluid (SGF) with 0.5% tween 80; type: physicochemical; conditions: SGF with 0.5% tween 80, 37 °C, up to 180 min
Procedure: as §1, §2

[6] = Pharmacokinetic study in male Sprague Dawley rats, plasma total coenzyme Q10; type: in vivo; conditions: rat, gavage, 100 mg/kg as ubiquinol equivalents
Procedure: Pharmacokinetic experiments were conducted on male Sprague Dawley rats to compare the oral exposure of the UQ-NC cocrystal and the ubiquinol marketed form II. The two ubiquinol samples were dispersed homogeneously in 0.5% CMC-Na (sodium carboxymethylcellulose) and 0.5% tween 80 aqueous solution to obtain the suspension of 10 mg/mL of ubiquinol. Twelve male Sprague Dawley rats weighing […] were randomly allocated into two groups (six rats in each group). Each received gavage administration at a dose of 100 mg/kg body (expressed as ubiquinol equivalents). After this administration, approximately 200 μL of blood sample was collected from the orbital sinus into heparinized tubes at 0, 1, 2, 3, 4, 6, 8, and 24 h for each rat.
In this experiment, the whole process was protected from light. An aliquot of 100 µL of plasma sample was added to 100 µL of p-benzoquinone and then placed for 10 min after vortex mixing. Next, a 400 µL methanol solution containing 1 µg/mL of IS Q9 and 1mL of n-hexane was added. The mixture was vortexed for 5 min and centrifuged at 14,000 rpm for 1 min. In total, 0.825 mL of the upper extract was transferred and dried under the condition of 30 °C nitrogen, and 200 µL of ethanol equal solution was added for re dissolution, vortexed, and mixed well. An aliquot of 4.00 µL of supernatant was injected for an LC-MS/MS analysis.
The quantification of coenzyme Q10 in the plasma samples was accomplished using an AB Sciex Triple Quad 4500 LC-MS instrument manufactured by SCIEX Co., Ltd., Framingham, MA, USA. Chromatography consisted of a Column NO.ZORBAX Eclipse Plus C18 (50 mm × 4.6 mm, 1.8 μm). The mobile phase consisted of acetonitrile and alcohol (50/50, v/v) at a flow rate of 1.0 mL min-1. An injection of 10 μL was performed and the column temperature was set to 40 °C. The detector was set at 290 nm. Multiple reaction monitoring modes (MRM) were used to perform the detection and quantification, with m/z 863.8→197.4 for coenzyme Q10. The DAS 2.0 program was used to perform the PK analysis.

[7] = set-up: method as in earlier work; conditions: after four weeks, open conditions, 25 °C; cited from earlier work
[8] = set-up: method as in doi:10.1016/j.jff.2008.09.010; conditions: single 100 mg/day dose, individuals of >60 years; cited from earlier work
[9] = 200 mg/day with a main meal, 2-week supplementation, ten older men; cited from earlier work
human dermal fibroblasts = test system: human dermal fibroblasts; set-up: method as in PMID 33482334; conditions: compared to ubiquinone; cited from earlier work
[10] = set-up: method as in PMID 19096107; conditions: patients changed from ubiquinone to ubiquinol; cited from earlier work
[11] = set-up: method as in PMID 33673604; conditions: 1500 mg/day, multiple-system atrophy; cited from earlier work

In the case of `COc1c(O)c(C)c(C/C=C(\C)CC/C=C(\C)CC/C=C(\C)CC/C=C(\C)CC/C=C(\C)CC/C=C(\C)CC/C=C(\C)CC/C=C(\C)CC/C=C(\C)CCC=C(C)C)c(O)c1OC` [polymorph I, ubiquinol], the “assay value of ubiquinol” value [1] is reported as 28.3%.
In the case of `COC1=C(OC)C(=O)C(C/C=C(\C)CC/C=C(\C)CC/C=C(\C)CC/C=C(\C)CC/C=C(\C)CC/C=C(\C)CC/C=C(\C)CC/C=C(\C)CC/C=C(\C)CCC=C(C)C)=C(C)C1=O` [CoQ10, Coenzyme Q10], the “orally administered absorption efficiency” value [2] is listed as 2–3%.
For `NC(=O)c1cccnc1` [nicotinamide], the “reduction in the development of insulin-dependent diabetes mellitus” value [3] is listed as 50%.
For `COc1c(O)c(C)c(C/C=C(\C)CC/C=C(\C)CC/C=C(\C)CC/C=C(\C)CC/C=C(\C)CC/C=C(\C)CC/C=C(\C)CC/C=C(\C)CC/C=C(\C)CCC=C(C)C)c(O)c1OC` [polymorph II, ubiquinol], the “assay value of ubiquinol” value [1] was 94.2%, the “AUC (dissolution)” value [4] was 4500 µg·h/mL and the “Cmax (dissolution, ubiquinol concentration)” value [4] was 90000 ng/mL. The “AUC (dissolution)” value [5] was 1500 µg·h/mL, the “Cmax (dissolution, ubiquinol concentration)” value [5] was 30000 ng/mL and the “AUC0–8h” value [6] was 0.1919 µg·h/mL. For the same molecule, the Cmax [6] was 71.2 ng/mL, the MRT [6] was 43.3 h and the T1/2 [6] was 29.9 h. The Tmax [6] was 8.0 h and the “ubiquinol transformed to ubiquinone” value [7] was “about 6.9%”.
For `COc1c(O)c(C)c(C/C=C(\C)CC/C=C(\C)CC/C=C(\C)CC/C=C(\C)CC/C=C(\C)CC/C=C(\C)CC/C=C(\C)CC/C=C(\C)CC/C=C(\C)CCC=C(C)C)c(O)c1OC` [ubiquinol], the “increase of plasma AUC0–72h compared with ubiquinone” value [8] is given as 430%, the “plasma AUC0–72h compared with subjects receiving ubiquinone” value [8] is given as 4.3 fold and the “plasma CoQ10 status” value [9] is given as “significant increase”. The “reverting the expression of the senescent phenotype (β-galactosidase positivity, p21, collagen type 1, elastin)” value (human dermal fibroblasts) was “more efficient”, the “symptoms of heart failure” value [10] was “significantly improved” and the “decline in UMSARS part 2 score compared to placebo” value [11] was “significantly smaller decline”. The tolerability [11] was “well-tolerated”.
